From US11634425B2, “Pharmaceutical compounds” (priority 2019, dated 2023)
pEC50: −log10 of the molar value. Like-named read-outs stand apart in the source and are kept apart here.

Experiments:
in vitro = in vitro ADME; conditions: microsomes, pH 7.4, 1 μM compound, 0.5 mg/mL protein, read-out: Liver Microsomal Stability t1/2
Procedure: Compounds were subjected to the following assays to investigate liver microsomal stability and hepatocyte stability.
Microsomal Incubation: Experimental Procedure
Pooled liver microsomes were purchased from a reputable commercial supplier and stored at −80° C. prior to use. Microsomes (final protein concentration 0.5 mg/mL), 0.1 M phosphate buffer pH 7.4 and test compound (final substrate concentration 1 μM; final DMSO concentration 0.25%) were pre-incubated at 37° C. prior to the addition of NADPH (final concentration 1 mM) to initiate the reaction. The final incubation volume was 50 μL. A control incubation was included for each compound tested where 0.1 M phosphate buffer pH 7.4 was added instead of NADPH (minus NADPH). Two control compounds were included with each species. All incubations were performed singularly for each test compound. Each compound was incubated for 0, 5, 15, 30 and 45 min. The control (minus NADPH) was incubated for 45 min only. The reactions were stopped by transferring incubate into acetonitrile at the appropriate time points, in a 1:3 ratio. The termination plates are centrifuged at 3,000 rpm for 20 min at 4° C. to precipitate the protein. Following protein precipitation, the sample supernatants were combined in cassettes of up to 4 compounds, internal standard added, and samples analysed by LC-MS/MS. From a plot of ln peak area ratio (compound peak area/internal standard peak area) against time, the gradient of the line was determined. Subsequently, half-life (t1/2) and intrinsic clearance (CLint) were calculated.

Cell cytotoxicity (CC50) = format: cell-based; conditions: human; mean of at least two experiments
How it was run: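 Values are means of ≥2 independent runs, rounded to whole units, from 4-parameter variable-slope curve fits. Toxicity measured in Hep-G2 cells run alongside RSV plaque-reduction assays.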

RSV A2 = assay: RSV plaque reduction assay; format: cell-based, respiratory syncytial virus (RSV); conditions: human respiratory syncytial virus, HepG2, Hep-G2 cells, mean of at least two experiments
How it was run: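 RSV A2 at 100 PFU/well was premixed with eight compound dilutions and added to confluent Hep-G2 monolayers for 2 h at 37 °C. Cells were then kept 2 days under a DMEM/2% FBS/0.8% CMC overlay containing compound. Immunostained plaques were counted relative to virus controls, and EC50 came from 4-parameter fits, averaged over at least two experiments.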

SMILES	half-life at 1 μM (in vitro; dog) [h]	half-life at 1 μM (in vitro; human) [h]	half-life at 1 μM (in vitro; rat) [h]	CC50 (Cell cytotoxicity (CC50)) [nM]	pEC50 (RSV A2)
O=C(N[C@H]1N=C(c2ccccc2)c2ccccc2NC1=O)c1c(-c2cncc(Cl)c2)nn2cccnc12 [Example 27, 2-(5-Chloropyridin-3-yl)-N-[(3S)-2-oxo-5-phenyl-1,3-dihydro-1,4-benzodiazepin-3-yl]pyrazolo[1,5-a]pyrimidine-3-carboxamide]	0.997	2.03	8.75	> 25000	7.21
O=C(N[C@H]1N=C(c2ccccc2)c2ccccc2NC1=O)c1c(-c2ccc(C3CC3)nc2)nn2cccnc12 [Example 29, 2-(6-Cyclopropylpyridin-3-yl)-N-[(3S)-2-oxo-5-phenyl-1,3-dihydro-1,4-benzodiazepin-3-yl]pyrazolo[1,5-a]pyrimidine-3-carboxamide]	1.23	5.22	15.2	> 25000	7.14
O=C(N[C@H]1N=C(c2ccccc2)c2cccc(F)c2NC1=O)c1c(-c2ccc(C3CC3)nc2)nn2cccnc12 [Example 30, 2-(6-Cyclopropylpyridin-3-yl)-N-[(3S)-9-fluoro-2-oxo-5-phenyl-1,3-dihydro-1,4-benzodiazepin-3-yl]pyrazolo[1,5-a]pyrimidine-3-carboxamide]	4.88	3.02	4.43	> 25000	7.21
Cc1cnc(F)c(-c2nn3cccnc3c2C(=O)N[C@H]2N=C(c3ccccc3)c3cccc(F)c3NC2=O)c1 [Example 32, 2-(2-Fluoro-5-methylpyridin-3-yl)-N-[(3S)-9-fluoro-2-oxo-5-phenyl-1,3-dihydro-1,4-benzodiazepin-3-yl]pyrazolo[1,5-a]pyrimidine-3-carboxamide]	3.78	5.58	1.28	> 25000	7.07
Cc1cnc2c(C(=O)N[C@H]3N=C(c4ccccc4)c4cccc(F)c4NC3=O)c(-c3ccccc3F)nn2c1 [Example 34, N-[(3S)-9-Fluoro-2-oxo-5-phenyl-1,3-dihydro-1,4-benzodiazepin-3-yl]-2-(2-fluorophenyl)-6-methylpyrazolo[1,5-a]pyrimidine-3-carboxamide]	1.44	> 2.33	1.08	> 25000	7.64
Cc1ccn2nc(-c3ccc(F)cc3F)c(C(=O)N[C@H]3N=C(c4ccccc4)c4cccc(F)c4NC3=O)c2n1 [Example 36, 2-(2,4-Difluorophenyl)-N-[(3S)-9-fluoro-2-oxo-5-phenyl-1,3-dihydro-1,4-benzodiazepin-3-yl]-5-methylpyrazolo[1,5-a]pyrimidine-3-carboxamide]	3.7	> 2.33	0.557	> 25000	7.57
Cc1ccnc2c(C(=O)N[C@H]3N=C(c4ccccc4)c4ccccc4NC3=O)c(-c3ccccc3F)nn12 [Example 37, 2-(2-Fluorophenyl)-7-methyl-N-[(3S)-2-oxo-5-phenyl-1,3-dihydro-1,4-benzodiazepin-3-yl]pyrazolo[1,5-a]pyrimidine-3-carboxamide]	1.95	> 2.33	0.842	> 25000	7.41
O=C(N[C@H]1N=C(c2ccccc2)c2ccccc2NC1=O)c1c(-c2ccccc2F)nn2ccc(N3CCOCC3)nc12 [Example 39, 2-(2-Fluorophenyl)-5-(morpholin-4-yl)-N-[(3S)-2-oxo-5-phenyl-2,3-dihydro-1H-1,4-benzodiazepin-3-yl]pyrazolo[1,5-a]pyrimidine-3-carboxamide]	0.255	1.33	0.538	> 25000	7.21
O=C(N[C@H]1N=C(c2ccccc2)c2cccc(F)c2NC1=O)c1c(-c2cccc(F)c2F)nn2cccnc12 [Example 42, 2-(2,3-Difluorophenyl)-N-[(3S)-9-fluoro-2-oxo-5-phenyl-1,3-dihydro-1,4-benzodiazepin-3-yl]pyrazolo[1,5-a]pyrimidine-3-carboxamide]	12.2	> 2.33	2.83	> 14000	7.39
O=C(N[C@H]1N=C(c2ccccc2)c2ccccc2NC1=O)c1c(-c2cccc(F)c2F)nn2cccnc12 [Example 43, 2-(2,3-Difluorophenyl)-N-[(3S)-2-oxo-5-phenyl-1,3-dihydro-1,4-benzodiazepin-3-yl]pyrazolo[1,5-a]pyrimidine-3-carboxamide]	0.97	3.35	41.5	> 25000	7.22
O=C(N[C@H]1N=C(c2ccccc2)c2cccc(F)c2NC1=O)c1c(-c2c(F)cccc2F)nn2cccnc12 [Example 44, 2-(2,6-Difluorophenyl)-N-[(3S)-9-fluoro-2-oxo-5-phenyl-1,3-dihydro-1,4-benzodiazepin-3-yl]pyrazolo[1,5-a]pyrimidine-3-carboxamide]	12.5	9.07	3.85	> 25000	7.06
O=C(N[C@H]1N=C(c2ccccc2)c2ccccc2NC1=O)c1c(-c2ccc(NC3CC3)nc2F)nn2cccnc12 [Example 48, 2-[6-(Cyclopropylamino)-2-fluoropyridin-3-yl]-N-[(3S)-2-oxo-5-phenyl-1,3-dihydro-1,4-benzodiazepin-3-yl]pyrazolo[1,5-a]pyrimidine-3-carboxamide]	0.37	14.8	3.62	> 25000	7.89
CCc1ccc(-c2nn3cccnc3c2C(=O)N[C@H]2N=C(c3ccccc3)c3ccccc3NC2=O)cn1 [Example 54, 2-(6-Ethylpyridin-3-yl)-N-[(3S)-2-oxo-5-phenyl-1,3-dihydro-1,4-benzodiazepin-3-yl]pyrazolo[1,5-a]pyrimidine-3-carboxamide]	1.32	2.92	1.28	> 25000	6.82
CC(C)c1ccc(-c2nn3cccnc3c2C(=O)N[C@H]2N=C(c3ccccc3)c3cccc(F)c3NC2=O)cn1 [Example 59, 2-(6-Propan-2-ylpyridin-3-yl)-N-[(3S)-9-fluoro-2-oxo-5-phenyl-1,3-dihydro-1,4-benzodiazepin-3-yl]pyrazolo[1,5-a]pyrimidine-3-carboxamide]	1.51	2.28	1	> 25000	7.22
Cn1ncc2cc(-c3nn4cccnc4c3C(=O)N[C@H]3N=C(c4ccccc4)c4cccc(F)c4NC3=O)ccc21 [Example 63, N-[(3S)-9-fluoro-2-oxo-5-phenyl-1,3-dihydro-1,4-benzodiazepin-3-yl]-2-(1-methylindazol-5-yl)pyrazolo[1,5-a]pyrimidine-3-carboxamide]	2.53	1.88	3.78	> 25000	7.18
Cc1cncc(-c2nn3cccnc3c2C(=O)N[C@H]2N=C(c3ccccc3)c3cccc(F)c3NC2=O)c1 [Example 64, N-[(3S)-9-fluoro-2-oxo-5-phenyl-1,3-dihydro-1,4-benzodiazepin-3-yl]-2-(5-methylpyridin-3-yl)pyrazolo[1,5-a]pyrimidine-3-carboxamide]	3.58	24.2	1.7	> 18800	7.00
CC(C)Nc1ccc(-c2nn3cccnc3c2C(=O)N[C@H]2N=C(c3ccccc3)c3ccccc3NC2=O)c(F)n1 [Example 69, 2-[2-Fluoro-6-(propan-2-ylamino)pyridin-3-yl]-N-[(3S)-2-oxo-5-phenyl-1,3-dihydro-1,4-benzodiazepin-3-yl]pyrazolo[1,5-a]pyrimidine-3-carboxamide]	0.447	3.22	2.43	> 25000	7.72
CC(C)Nc1ccc(-c2nn3cccnc3c2C(=O)N[C@H]2N=C(c3ccccc3)c3cccc(F)c3NC2=O)c(F)n1 [Example 70, N-[(3S)-9-Fluoro-2-oxo-5-phenyl-1,3-dihydro-1,4-benzodiazepin-3-yl]-2-[2-fluoro-6-(propan-2-ylamino)pyridin-3-yl]pyrazolo[1,5-a]pyrimidine-3-carboxamide]	0.525	3.45	1.65	> 25000	7.64
